# Reference: ChEMBL document CHEMBL5226309, “Synthetic RNA Modulators in Drug Discovery” (J Med Chem, 2021)
# pEC50, pIC50, pKd: −log10 of the molar value.
# Legend:
# [1] = Effect on tau protein expression in human SH-SY5Y cells; type: functional, cell-based
# [2] = Binding affinity to Precursor microRNA-210 (unknown origin) assessed as dissociation constant
# MDA-MB-231 = assay: Inhibition of Precursor microRNA-210 in human MDA-MB-231 cells at 200 nM relative to control; type: cell-based
# [3] = Inhibition of r(CCUG)12-MBNL1 (unknown origin) by gel electrophoretic mobility shift assay; set-up: species or system Homo sapiens
# [4] = Binding affinity to r(CCUG)12 (unknown origin) assessed as dissociation constant
# [5] = target: T1, Muscleblind-like protein 1 (Homo sapiens, UniProt Q9NR56); assay: Binding affinity to MBNL1 (unknown origin) assessed as dissociation constant
# T1 sequence (Q9NR56 whole entry): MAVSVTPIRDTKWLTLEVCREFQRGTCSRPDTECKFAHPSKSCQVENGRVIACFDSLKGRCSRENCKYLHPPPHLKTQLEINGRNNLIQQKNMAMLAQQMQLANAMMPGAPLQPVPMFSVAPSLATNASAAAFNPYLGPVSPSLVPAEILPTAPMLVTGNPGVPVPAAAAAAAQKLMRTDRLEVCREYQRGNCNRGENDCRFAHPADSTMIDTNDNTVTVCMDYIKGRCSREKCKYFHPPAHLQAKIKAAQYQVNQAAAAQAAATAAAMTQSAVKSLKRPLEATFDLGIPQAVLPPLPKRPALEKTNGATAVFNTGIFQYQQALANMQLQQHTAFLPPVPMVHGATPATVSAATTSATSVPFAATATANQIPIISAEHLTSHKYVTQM
# [6] = test system: Human immunodeficiency virus 1; assay: Antiviral activity against HIV-1 infected in human T cell line assessed as inhibition of DNA replication; type: functional, organism-based; settings: Human immunodeficiency virus 1, T-cell
# HeLa = assay: Cytotoxicity against human HeLa cells; type: functional
# U-251 = assay: Induction of apoptosis in human U-251 cells at 100 uM; type: functional
# MCF7 = assay: Induction of apoptosis in human MCF7 cells at 100 uM; type: functional
# [7] = Downregulation of alpha-Synuclein level in human SH-SY5Y cells at 1 uM relative to control; type: functional
# [8] = test system: Human immunodeficiency virus 1; assay: Antiviral activity against HIV-1; type: functional, organism-based
# [9] = Binding affinity to HIV-1 mRNA assessed as dissociation constant; set-up: species or system Human immunodeficiency virus 1
# [10] = Binding affinity to Precursor microRNA-515 (unknown origin) assessed as dissociation constant
# [11] = target: Microtubule-associated protein tau (Rattus norvegicus) (UniProt P19332); assay: Inhibition of tau in rat Primary cortical neuron cell assessed as reduction in 4R/3R ratio; type: cell-based; settings: concentration not given here
# Sequence of Microtubule-associated protein tau (Rattus norvegicus) (P19332 whole entry): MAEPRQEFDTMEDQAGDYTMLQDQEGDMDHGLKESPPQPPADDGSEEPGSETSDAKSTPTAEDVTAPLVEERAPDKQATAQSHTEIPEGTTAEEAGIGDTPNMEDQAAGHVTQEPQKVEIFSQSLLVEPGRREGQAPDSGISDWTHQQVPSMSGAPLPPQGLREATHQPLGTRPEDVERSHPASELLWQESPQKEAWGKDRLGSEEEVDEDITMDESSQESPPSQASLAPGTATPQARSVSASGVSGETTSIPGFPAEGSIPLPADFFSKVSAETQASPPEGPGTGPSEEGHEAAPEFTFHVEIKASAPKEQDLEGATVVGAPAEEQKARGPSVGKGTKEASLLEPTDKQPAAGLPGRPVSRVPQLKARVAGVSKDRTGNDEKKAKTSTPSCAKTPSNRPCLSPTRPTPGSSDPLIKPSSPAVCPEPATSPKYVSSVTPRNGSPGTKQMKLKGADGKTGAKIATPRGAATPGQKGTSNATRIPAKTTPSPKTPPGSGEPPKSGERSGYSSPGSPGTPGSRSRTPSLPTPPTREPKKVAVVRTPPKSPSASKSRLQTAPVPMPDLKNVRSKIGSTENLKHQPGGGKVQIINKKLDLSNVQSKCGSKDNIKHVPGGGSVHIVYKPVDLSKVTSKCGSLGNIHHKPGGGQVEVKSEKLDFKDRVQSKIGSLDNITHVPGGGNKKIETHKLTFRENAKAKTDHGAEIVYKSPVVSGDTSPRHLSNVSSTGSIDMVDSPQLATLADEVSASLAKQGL
# [12] = target: T2, Microtubule-associated protein tau (Homo sapiens, UniProt P10636); assay: Inhibition of tau (unknown origin)
# T2 sequence (P10636 whole entry): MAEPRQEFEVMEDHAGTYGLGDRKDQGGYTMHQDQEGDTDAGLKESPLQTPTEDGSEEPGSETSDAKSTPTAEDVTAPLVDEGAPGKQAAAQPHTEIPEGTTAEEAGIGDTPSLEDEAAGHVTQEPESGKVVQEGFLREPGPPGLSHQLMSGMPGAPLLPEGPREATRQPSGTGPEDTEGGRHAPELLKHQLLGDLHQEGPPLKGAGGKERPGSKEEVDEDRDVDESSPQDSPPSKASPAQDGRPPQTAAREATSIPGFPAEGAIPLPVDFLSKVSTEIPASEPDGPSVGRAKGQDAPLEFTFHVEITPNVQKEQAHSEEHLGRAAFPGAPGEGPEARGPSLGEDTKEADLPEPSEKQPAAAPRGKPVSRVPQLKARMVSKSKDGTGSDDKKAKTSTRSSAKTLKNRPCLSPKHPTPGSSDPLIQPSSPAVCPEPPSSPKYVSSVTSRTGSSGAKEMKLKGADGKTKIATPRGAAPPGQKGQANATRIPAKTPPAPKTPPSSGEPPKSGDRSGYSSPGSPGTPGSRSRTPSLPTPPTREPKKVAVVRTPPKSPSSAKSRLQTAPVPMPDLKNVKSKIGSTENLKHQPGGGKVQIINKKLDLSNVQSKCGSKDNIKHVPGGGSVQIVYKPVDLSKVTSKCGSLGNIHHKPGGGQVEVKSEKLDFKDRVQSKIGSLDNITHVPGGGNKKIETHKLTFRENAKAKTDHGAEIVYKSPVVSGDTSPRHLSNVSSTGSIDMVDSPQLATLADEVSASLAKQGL
# [13] = target: T2, Microtubule-associated protein tau; assay: Binding affinity to tau (unknown origin)
# [14] = target: T2, Microtubule-associated protein tau; assay: Inhibition of tau in human LA-N-5 cells assessed as reduction in 4R/3R ratio; type: cell-based; settings: concentration not given here
# Escherichia coli [15] = assay: Antibacterial activity against Escherichia coli MB5746; type: functional, organism-based
# Escherichia coli [16] = assay: In vivo antibacterial activity against Escherichia coli MB5746 infected in DBA/2J mouse assessed as log 10 reduction in CFU in spleen at 60 mg/kg, sc administered every 3 hrs for 24 hrs (reference value: 9.53 log10 CFU); type: functional
# Escherichia coli [17] = assay: In vivo antibacterial activity against Escherichia coli MB5746 infected in DBA/2J mouse assessed as log 10 reduction in CFU in spleen at 120 mg/kg, sc administered every 3 hrs for 24 hrs (reference value: 9.53 log10 CFU); type: functional
# [18] = Binding affinity to telomeric RNA (unknown origin) assessed as dissociation constant
compound,measurement,setting,value
N=C(N)NC[C@H]1O[C@H](O[C@@H]2[C@@H](OCCSSCCNCCNc3ccc(NCCNCCO)c4c3C(=O)c3ccccc3C4=O)[C@H](O)[C@@H](NC(=N)N)C[C@H]2NC(=N)N)[C@H](NC(=N)N)[C@@H](O)[C@@H]1O,pEC50,[1],7.24
CN1CCN(c2ccc3nc(-c4ccc(OCCCC(=O)NCCCOCC(O)COP(=O)(O)O[C@@H]5[C@H](O)[C@@H](COP(=O)(O)O[C@@H]6[C@H](O)[C@@H](COP(=O)(O)O[C@@H]7[C@H](O)[C@@H](COP(=O)(O)O[C@@H]8[C@H](O)[C@@H](COP(=O)(O)O)O[C@H]8n8cnc9c(N)ncnc98)O[C@H]7n7cnc8c(N)ncnc87)O[C@H]6n6cnc7c(N)ncnc76)O[C@H]5n5cnc6c(N)ncnc65)cc4)[nH]c3c2)CC1 (some centres not stated),pKd,[2],6.47
same,inhibition,MDA-MB-231,50%
N=C(NCCCCNc1nc(N)nc(N)n1)c1ccc(C(=N)NCCCCNc2nc(N)nc(N)n2)cc1,pIC50,[3],3.94
same,pKd,[4],5.10
same,pKd,[5],< 3.70
O=C1c2c(O)ccc(O)c2C(=O)c2c(NCCNCCO)ccc(NCCNCCO)c21 [MITOXANTRONE],pIC50,[6],4.64
same,Activity,HeLa,1 µM
NC(=O)c1ncn2c(=O)n(NC(=O)c3nc4c(N)cccc4[nH]3)nnc12,Activity,U-251,30%
same,Activity,MCF7,30%
N=C(N)c1ccc(Nc2ccc(-c3cc4ccc(C(=N)N)cc4[nH]3)cc2)cc1,Activity,[7],67%
CC(=O)Nc1nc(CC(=O)c2cccc(NC(=O)[C@@H](N)CCCCNC(=N)N)c2)cs1,pIC50,[8],6.39
same,pKd,[9],6.96
CCCN(CC(=O)N(CCC)CC(=O)N(CCC)CC(=O)N(CCC)CC(=O)N(CC(N)=O)Cc1cn(CCCNC(=O)CCCOc2c(C(C)(C)C)cc(-c3nc4ccc(-c5ccc(N6CCN(C)CC6)cc5)cc4[nH]3)cc2C(C)(C)C)nn1)C(=O)CNCc1cn(CCCNC(=O)CCCOc2c(C(C)(C)C)cc(-c3nc4ccc(-c5ccc(N6CCN(C)CC6)cc5)cc4[nH]3)cc2C(C)(C)C)nn1,pKd,[10],7.22
COc1ccc2[nH]c3c(c2c1)N=CN(CCCN(C)C1CCCCC1)C3,inhibition,[11],50%
same,pIC50,[12],5.68
same,pKd,[13],5.31
same,inhibition,[14],40%
CNc1ncc(CN2CCCC(c3nc(O)cc(-c4cccs4)n3)C2)cn1 (configuration not stated),pIC50,Escherichia coli [15],6.52
same,Activity,Escherichia coli [16],7.76 log10CFU/g
same,Activity,Escherichia coli [17],6.24 log10CFU/g
O=c1c2cc(-c3ccco3)sc2nc2n1Cc1nc3sc(-c4ccco4)cc3c(=O)n1C2,pKd,[18],5.23
